{
  "source": "paper PMC6100008",
  "about": "“Fingerprint-Based Machine Learning Approach to Identify Potent and Selective 5-HT2BR Ligands” (Molecules : A Journal of Synthetic Chemistry and Natural …, 2018)",
  "key": {"[1]": {"target": "human 5-HT2B receptor (Homo sapiens, UniProt P41595)", "sequence (P41595 whole entry)": "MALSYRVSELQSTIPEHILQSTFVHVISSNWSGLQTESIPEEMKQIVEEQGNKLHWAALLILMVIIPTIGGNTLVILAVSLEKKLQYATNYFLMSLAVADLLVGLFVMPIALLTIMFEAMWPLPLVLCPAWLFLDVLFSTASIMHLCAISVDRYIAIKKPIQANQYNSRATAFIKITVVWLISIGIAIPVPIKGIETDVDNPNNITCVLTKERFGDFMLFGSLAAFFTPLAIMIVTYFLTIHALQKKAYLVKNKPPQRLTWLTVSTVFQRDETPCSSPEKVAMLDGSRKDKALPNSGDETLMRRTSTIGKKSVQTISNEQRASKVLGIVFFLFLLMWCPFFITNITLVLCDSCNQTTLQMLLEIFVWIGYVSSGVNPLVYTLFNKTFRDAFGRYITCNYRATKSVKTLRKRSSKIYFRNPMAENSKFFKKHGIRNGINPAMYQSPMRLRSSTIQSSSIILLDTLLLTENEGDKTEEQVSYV", "assay": "Competition binding in human 5-HT2B receptor ([3H]-LSD, CHO-5-HT2B membranes)", "conditions": "for inhibition at 10 µM: read-out: 5-HT2B (%) percentage of inhibition; for 5-HT2BR affinity range in words: conclusions"}, "[2]": {"target": "T1, human 5-HT1B receptor (Homo sapiens, UniProt P28222)", "T1 construct": "expressed in transfected cells; host or cells: HeLa (Hela-5-HT1B cell line, Lot A001/14-11-2011)", "T1 sequence (P28222 whole entry)": "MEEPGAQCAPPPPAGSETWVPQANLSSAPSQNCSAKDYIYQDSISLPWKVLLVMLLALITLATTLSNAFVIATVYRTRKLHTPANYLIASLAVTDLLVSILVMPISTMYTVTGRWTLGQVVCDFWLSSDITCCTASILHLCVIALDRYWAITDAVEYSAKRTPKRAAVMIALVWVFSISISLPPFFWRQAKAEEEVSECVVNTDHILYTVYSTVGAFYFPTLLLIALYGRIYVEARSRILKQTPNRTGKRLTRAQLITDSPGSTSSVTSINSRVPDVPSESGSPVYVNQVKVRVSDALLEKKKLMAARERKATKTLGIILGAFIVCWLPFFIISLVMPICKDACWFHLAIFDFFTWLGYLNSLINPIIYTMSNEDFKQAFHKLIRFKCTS", "assay": "Competition binding in human 5-HT1B receptor ([3H]-GR125743, Hela-5-HT1B membranes)", "conditions": "for inhibition at 10 µM: 10 µM compound, mean ± SD of three independent assays with duplicate measurements, read-out: 5-HT1B (%) percentage of inhibition; for Ki: measured if inhibition at 10 µM exceeded 50%, mean ± SD of three assays"}, "[3]": {"tested_on": "5-HT2B", "conditions": "cited from earlier work"}, "[4]": {"target": "5-HT1B", "conditions": "Figure 1; ref 21 (compound 1), ChEMBL (compounds 2, 3); cited from earlier work"}, "[5]": {"target": "T2, human serotonin 5-HT7b receptor (Homo sapiens, UniProt P34969)", "T2 construct": "expressed in transfected cells", "T2 sequence (P34969 1-432)": "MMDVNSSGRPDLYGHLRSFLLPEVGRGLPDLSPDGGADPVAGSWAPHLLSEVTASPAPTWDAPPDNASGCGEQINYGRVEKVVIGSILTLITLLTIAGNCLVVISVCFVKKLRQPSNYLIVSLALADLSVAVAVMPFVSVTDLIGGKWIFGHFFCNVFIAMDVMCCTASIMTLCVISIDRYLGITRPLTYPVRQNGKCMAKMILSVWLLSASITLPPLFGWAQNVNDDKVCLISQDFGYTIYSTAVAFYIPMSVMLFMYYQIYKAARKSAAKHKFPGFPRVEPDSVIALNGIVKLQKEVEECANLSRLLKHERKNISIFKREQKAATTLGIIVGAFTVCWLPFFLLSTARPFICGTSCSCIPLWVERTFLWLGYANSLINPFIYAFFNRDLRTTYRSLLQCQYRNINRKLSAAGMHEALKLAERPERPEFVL", "assay": "Competition binding in human 5-HT7 receptor ([3H]-5-CT, HEK293 membranes)", "conditions": "5-HT panel screening; mean ± SD"}, "[6]": {"target": "T3, human serotonin 5-HT6 receptor (Homo sapiens, UniProt P50406)", "T3 construct": "expressed in transfected cells", "T3 sequence (P50406 whole entry)": "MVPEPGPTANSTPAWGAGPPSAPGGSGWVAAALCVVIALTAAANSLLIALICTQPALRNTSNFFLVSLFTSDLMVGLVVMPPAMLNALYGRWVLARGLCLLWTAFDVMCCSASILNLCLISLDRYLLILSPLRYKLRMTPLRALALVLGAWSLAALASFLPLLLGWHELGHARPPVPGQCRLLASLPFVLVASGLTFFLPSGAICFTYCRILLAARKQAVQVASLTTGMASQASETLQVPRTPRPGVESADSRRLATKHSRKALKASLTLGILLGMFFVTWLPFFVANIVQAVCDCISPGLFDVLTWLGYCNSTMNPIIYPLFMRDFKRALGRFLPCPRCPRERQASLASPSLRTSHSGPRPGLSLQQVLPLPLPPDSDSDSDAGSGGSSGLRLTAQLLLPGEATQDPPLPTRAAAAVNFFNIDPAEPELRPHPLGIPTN", "assay": "Competition binding in human 5-HT6 receptor ([3H]-LSD, HEK293 membranes)", "conditions": "5-HT panel screening; mean ± SD"}, "[7]": {"target": "T4, human serotonin 5-HT1AR (Homo sapiens, UniProt P08908)", "T4 construct": "expressed in transfected cells", "T4 sequence (P08908 1-422)": "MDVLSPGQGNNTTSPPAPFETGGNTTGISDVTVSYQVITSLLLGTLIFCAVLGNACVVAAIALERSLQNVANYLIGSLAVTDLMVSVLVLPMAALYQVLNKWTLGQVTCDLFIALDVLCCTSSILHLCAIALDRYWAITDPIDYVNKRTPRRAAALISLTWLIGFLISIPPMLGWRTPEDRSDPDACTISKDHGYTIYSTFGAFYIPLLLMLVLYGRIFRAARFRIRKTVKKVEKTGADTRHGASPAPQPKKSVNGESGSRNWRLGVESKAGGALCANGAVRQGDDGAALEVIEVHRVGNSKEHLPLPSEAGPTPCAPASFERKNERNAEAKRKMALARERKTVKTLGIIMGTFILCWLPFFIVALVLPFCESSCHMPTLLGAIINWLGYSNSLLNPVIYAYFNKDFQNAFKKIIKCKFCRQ", "assay": "Competition binding in human 5-HT1A receptor ([3H]-8-OH-DPAT, HEK293 membranes)", "conditions": "5-HT panel screening; mean ± SD"}, "[8]": {"target": "T5, human serotonin 5-HT2A receptor (Homo sapiens, UniProt P28223)", "T5 construct": "expressed in transfected cells", "T5 sequence (P28223 whole entry)": "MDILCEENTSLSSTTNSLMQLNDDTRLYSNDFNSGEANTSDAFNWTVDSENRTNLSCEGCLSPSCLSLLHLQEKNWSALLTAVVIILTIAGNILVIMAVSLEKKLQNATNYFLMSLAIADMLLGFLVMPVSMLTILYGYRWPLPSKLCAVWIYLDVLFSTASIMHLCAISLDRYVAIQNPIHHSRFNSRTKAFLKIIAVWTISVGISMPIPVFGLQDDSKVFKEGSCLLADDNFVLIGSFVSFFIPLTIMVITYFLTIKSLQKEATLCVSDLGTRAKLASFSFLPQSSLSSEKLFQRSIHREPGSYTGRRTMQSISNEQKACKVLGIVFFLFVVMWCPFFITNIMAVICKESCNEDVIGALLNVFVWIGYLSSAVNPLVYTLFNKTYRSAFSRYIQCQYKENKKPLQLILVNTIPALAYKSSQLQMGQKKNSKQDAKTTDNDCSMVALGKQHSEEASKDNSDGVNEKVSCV", "assay": "Competition binding in human 5-HT2A receptor ([3H]-Ketanserin, HEK293 membranes)", "conditions": "5-HT panel screening; mean ± SD"}, "[9]": {"target": "5-HT2B", "set-up": "method as in earlier work", "conditions": "Figure 1; ref 21 (1), ChEMBL (2, 3), ref 24 (5), ref 26 (7); cited from earlier work"}, "[10]": {"tested_on": "5-HT2B", "set-up": "method as in PMID 8709108", "conditions": "Figure 1; cited from earlier work"}},
  "note": "Read-outs that look alike come from different tables or passages of the source.",
  "data": [
    {"smiles": "Cc1ncc(C(=O)N2CCC(c3nccn3Cc3ccccc3)CC2)c(=O)[nH]1", "note": "[Compound 13]", "values": [
      {"measurement": "inhibition at 10 µM", "setting": "[1]", "value": "34 ± 4", "unit": "%"},
      {"measurement": "inhibition at 10 µM", "setting": "[2]", "value": "19 ± 3", "unit": "%"}
    ]},
    {"smiles": "O=C(c1ccc(-c2ccccc2)cc1)N1CCC(c2nc3ccccc3[nH]2)CC1", "note": "[Compound 17]", "values": [
      {"measurement": "IC50", "setting": "[3]; Figure 6, closest literature analogue, read-out: IC50 (5-HT2BR)", "value": 0.0024, "unit": "µM"}
    ]},
    {"smiles": "COc1cc(N)c(Cl)cc1C(=O)NC1CCN(CCCOc2ccc(F)cc2)CC1OC", "note": "(centres unmarked) [Compound 2]", "values": [
      {"measurement": "pKi (5-HT1B)", "setting": "[4]", "value": "> 5.3"}
    ]},
    {"smiles": "CCc1ccc(NC(=O)c2ccc(-c3noc(C4CCN(C(=O)c5ccc(F)cc5)CC4)n3)cc2)cc1", "note": "[Compound 16]", "values": [
      {"measurement": "inhibition at 10 µM", "setting": "[1]", "value": "24 ± 4", "unit": "%"},
      {"measurement": "inhibition at 10 µM", "setting": "[2]", "value": "1 ± 1", "unit": "%"}
    ]},
    {"smiles": "Cc1c(C(=O)N2CCC(c3ncc[nH]3)CC2)n[nH]c1-c1ccc(Cl)cc1", "note": "[Compound 8]", "values": [
      {"measurement": "Ki", "setting": "[5]", "value": "> 20", "unit": "µM"},
      {"measurement": "Ki", "setting": "[6]", "value": "13.2 ± 1.5", "unit": "µM"},
      {"measurement": "Ki", "setting": "[1]", "value": "0.0003 ± 7e-05", "unit": "µM"},
      {"measurement": "5-HT2BR affinity range in words", "setting": "[1]", "value": "subnanomolar"},
      {"measurement": "selectivity for 5-HT2BR versus 5-HT1BR", "setting": "[1]; ratio of 5-HT1BR and 5-HT2BR affinity", "value": "ten thousand-fold"},
      {"measurement": "Ki", "setting": "[2]", "value": "2.93 ± 0.321", "unit": "µM"},
      {"measurement": "Ki", "setting": "[7]", "value": "> 20", "unit": "µM"},
      {"measurement": "Ki", "setting": "[8]", "value": "> 20", "unit": "µM"}
    ]},
    {"smiles": "CCCCN1CCC(COC(=O)c2cc(F)c(N)c3c2OCCO3)CC1", "note": "[Compound 3]", "values": [
      {"measurement": "pKi (5-HT2B)", "setting": "[9]", "value": 6.78},
      {"measurement": "pKi (5-HT1B)", "setting": "[4]", "value": "> 5"}
    ]},
    {"smiles": "COc1ccc(CC2NCCc3c2[nH]c2ccccc32)cc1OC", "note": "(centres unmarked) [Compound 6, LY-23728]", "values": [
      {"measurement": "pKB (5-HT2B)", "setting": "[10]", "value": 9.17}
    ]},
    {"smiles": "COc1cccc(-c2n[nH]cc2C(=O)N2CCCC(c3cc(O)ncn3)C2)c1", "note": "(centres unmarked) [Compound 12]", "values": [
      {"measurement": "inhibition at 10 µM", "setting": "[1]", "value": "36 ± 4", "unit": "%"},
      {"measurement": "inhibition at 10 µM", "setting": "[2]", "value": "7 ± 1", "unit": "%"}
    ]},
    {"smiles": "Cn1ccc2cc(NC(=O)Nc3cccnc3)ccc21", "note": "[Compound 7, SB-200646A]", "values": [
      {"measurement": "pKi (5-HT2B)", "setting": "[9]", "value": 7.5}
    ]},
    {"smiles": "Cc1c(-c2ccccc2)sc(NC(=O)Cn2c(=O)cnc3ccccc32)c1C(=O)N1CCCCC1", "note": "[Compound 9]", "values": [
      {"measurement": "Ki", "setting": "[5]", "value": "> 20", "unit": "µM"},
      {"measurement": "Ki", "setting": "[6]", "value": "7.5 ± 0.9", "unit": "µM"},
      {"measurement": "Ki", "setting": "[1]", "value": "0.235 ± 0.0159", "unit": "µM"},
      {"measurement": "5-HT2BR affinity range in words", "setting": "[1]", "value": "submicromolar"},
      {"measurement": "Ki", "setting": "[2]", "value": "2.1 ± 0.622", "unit": "µM"},
      {"measurement": "Ki", "setting": "[7]", "value": "> 20", "unit": "µM"},
      {"measurement": "Ki", "setting": "[8]", "value": "> 20", "unit": "µM"}
    ]},
    {"smiles": "Cn1c(CN2CCCCC2)nnc1C1CCCN(CCc2ccccc2)C1", "note": "(centres unmarked) [Compound 10]", "values": [
      {"measurement": "Ki", "setting": "[1]", "value": "2.61 ± 0.422", "unit": "µM"},
      {"measurement": "5-HT2BR affinity range in words", "setting": "[1]", "value": "low micromolar"},
      {"measurement": "inhibition at 10 µM", "setting": "[2]", "value": "7 ± 4", "unit": "%"}
    ]},
    {"smiles": "COc1ccc2c(c1)NC1(CCN(C(=O)c3ccc(C)c(C)c3)CC1)c1cccn1-2", "note": "[Compound 15]", "values": [
      {"measurement": "inhibition at 10 µM", "setting": "[1]", "value": "31 ± 4", "unit": "%"},
      {"measurement": "inhibition at 10 µM", "setting": "[2]", "value": "28 ± 3", "unit": "%"}
    ]},
    {"smiles": "Cc1cc([N+](=O)[O-])c(N2CCN(Cc3ccccc3)CC2)cc1N", "note": "[Compound 5, EGIS-7625]", "values": [
      {"measurement": "pKi (5-HT2B)", "setting": "[9]", "value": 9.0}
    ]},
    {"smiles": "COc1ccc(NC(=O)c2ccc(-c3ccncc3)c(C)c2)cc1N1CCN(C)CC1", "note": "[[^3H]-GR125743, reference compound]", "values": [
      {"measurement": "Kd", "setting": "[2]; radioligand used at […], read-out: KD of radioligand at 5-HT1BR", "value": 0.00074, "unit": "µM"}
    ]},
    {"smiles": "CCOC(=O)c1c(CN2CCCCC2)n(C)c2c1cc(OC(C)=O)c1c2c(-c2ccccc2)nn1-c1ccccc1", "note": "[Compound 14]", "values": [
      {"measurement": "inhibition at 10 µM", "setting": "[1]", "value": "34 ± 4", "unit": "%"},
      {"measurement": "inhibition at 10 µM", "setting": "[2]", "value": "26 ± 4", "unit": "%"}
    ]},
    {"smiles": "Cc1cccc2[nH]c(C3CCN(C(=O)c4cnn[nH]4)CC3)nc12", "note": "[Compound 11]", "values": [
      {"measurement": "inhibition at 10 µM", "setting": "[1]", "value": "40 ± 3", "unit": "%"},
      {"measurement": "inhibition at 10 µM", "setting": "[2]", "value": "12 ± 4", "unit": "%"}
    ]},
    {"smiles": "CC(C)c1cc(-c2ccc(F)c3ccccc23)nc(N)n1", "note": "[Compound 4, RS-127445]", "values": [
      {"measurement": "IC50", "setting": "[3]; Figure 1, read-out: IC50 (5-HT2B)", "value": 0.0007, "unit": "µM"}
    ]},
    {"smiles": "CCOC(=O)c1cccc(NC2=NC(N)=NC3(CCCCC3)N2)c1", "note": "[Compound 1]", "values": [
      {"measurement": "pKi (5-HT2B)", "setting": "[9]", "value": 8.14},
      {"measurement": "pKi (5-HT1B)", "setting": "[4]", "value": "> 5"}
    ]}
  ]
}
